Laboratory results reported in patent publication EP4803520A1, “COMPOUND CONTAINING FUSED BICYCLIC RING, PHARMACEUTICAL COMPOSITION, AND USE THEREOF” (priority 2023, dated 2025).

Columns and labels:
[1] = test system: MDA-MB-436 cells; experiment: Assay on inhibitory activity for MDA-MB-436 cell proliferation (CCK-8); type: cell-based; settings: 168 h of incubation, CCK-8, absorbance at 450 nm
Procedure: MDA-MB-436 cells in a good growth state were collected into a centrifuge tube, adjusted to a cell density of 2 × 10^4 cells/mL using a complete medium (DMEM high glucose + 10% FBS + 1× insulin-transferrin-selenium (ITS-G) + 16 µg/mL reduced glutathione), and seeded in a 96-well plate (100 µL/well), and the plate was incubated overnight in a cell incubator. Compounds were added using a pipettor, such that the final concentrations of the compounds were 400 nM-0.02 nM. The wells were set in duplicate, and a control well was set. After 168 h of incubation in the cell incubator, the assay reagent CCK-8 (manufacturer: Dojindo Laboratories, Beijing; 10 µL/well) was added. After 1.5 h of incubation in the cell incubator, the absorbance values were measured at 450 nm on a PerkinElmer Envision microplate reader. […] Inhibitory activity results for DA-MB-436 cell proliferation of compounds

[2] = target: T1, PARP1 (Homo sapiens, UniProt P09874); experiment: PARP1-Tracer activity assay (FP method); type: binding; parameters: purchased BPS 80551; settings: for PARP2/PARP 1 selectivity: ratio of PARP2 IC50 to PARP1 IC50, FP method
Procedure: (§1) The enzyme inhibition activity of the compounds against PARP1/2-Tracer was tested using the FP method. First, 100 nL of inhibitors with a final concentration of 1% DMSO were transferred to a 384-well reaction plate (Corning 4514) using Echo655. Then, 5 µL of a PARP1/2 (BPS, Cat. No. 80501/80502) enzyme solution was added to each well, followed by centrifugation at 1000 RPM for 1 min at room temperature, and the reaction was allowed to proceed for 10 min. Subsequently, 5 µL of a Tracer (ICE, Cat. No. 001315-009) solution was added to each well, followed by centrifugation at 1000 RPM for 1 min at room temperature, and the reaction was allowed to proceed for 60 min. PARP1/2 and Tracer were prepared in a buffer containing 50 mM Tris (pH 8.0), 10 mM MgCl2, 150 mM NaCl, and 0.001% Triox-100, with final concentrations of 5/10 nM and 2.5 nM, respectively. Finally, the FP signal was read using BMG (PHERAstar FSX), and the IC50 values and nonlinear regression curve fitting were obtained using GraphPad Prism software.

[3] = target: T1, PARP1; experiment: Assay on PARP1 protein activity (chemiluminescence assay kit)
Procedure: A chemiluminescence assay kit (BPS, Cat. No. 80551) was used. 50 µL of 1× histone was added to a 96-well plate and incubated overnight at 4 °C. Each well was washed 3 times with 200 µL of a PBST buffer (containing 0.05% Tween-20), and the liquid was removed from the plate. 200 µL of blocking buffer 3 was added, and the plate was blocked at room temperature for 60-90 min. The blocking solution was discarded, and the plate was washed 3 times with a PBST buffer, followed by the removal of the liquid from the plate. 25 µL of a master mix (2.5 µL of a 10× PARP buffer + 2.5 µL of a 10× biotinylated substrate assay mix + 5 µL of activated DNA (5×) + 15 µL of water) and 5 µL of a 1× PARP buffer were added to each well. Compounds were sprayed using a nanoliter pipettor in the compound groups. 20 µL of a 1× PARP buffer was added to the blank control group, and 20 µL of PARP 1 enzyme (2.4 ng/mL) was added to the other wells to initiate the reaction. The plate was incubated at room temperature for 1 h. 50 µL of streptavidin-HRP (diluted 1:50 in blocking buffer 3) was added to each well, and the plate was incubated at room temperature for 30 min. The plate was washed three times with PBST, and the liquid was removed from the plate. 50 µL of ELISA ECL substrate A and 50 µL of ELISA ECL substrate B were mixed on ice before use, and 100 µL were added to each well.

[4] = Experiment on brain distribution in rats; type: in vivo, SD rats; settings: rat, po
[5] = Mouse pharmacokinetics; type: in vivo; settings: plasma, ICR mice
Text: A non-compartmental model was used for fitting to calculate relevant pharmacokinetic parameters, and the results are shown in Table 3. Table 3. Pharmacokinetic results of compounds in mice

[6] = Rat pharmacokinetics; type: in vivo; settings: plasma, SD rats
Text: A non-compartmental model was used for fitting to calculate relevant pharmacokinetic parameters, and the results are shown in Table 4. Table 4. Pharmacokinetic results of compounds in rats

[7] = target: T2, PARP2 (Homo sapiens, UniProt Q9UGN5); experiment: PARP2-Tracer activity assay (FP method); type: binding; settings: PARP2 10 nM, Tracer 2.5 nM
T2 construct: purchased BPS 80502
Procedure: as §1

[8] = test system: MDA-MB-436 BRCA1m human breast cancer nude mouse subcutaneous xenograft tumor model; experiment: Pharmacodynamic evaluation in nude mouse subcutaneous xenograft tumor model; type: in vivo, nude mice; settings: ig 4 mg/kg once daily, after 22 days of administration
Procedure: MDA-MB-436 BRCA1m human breast cancer cells (5 × 10^6 cells/mouse) were inoculated subcutaneously into the right axilla of SPF-grade female nude mice. When the mean tumor volume reached about 150 mm^3, the animals were grouped.
The day of grouping was defined as day 0. The compound of the present application was intragastrically administered once on day 0, and was then administered once daily at a dose of 4 mg/kg with a vehicle of DMSO:PEG400 = 10:90 (v/v). The tumor volume and body weight were measured twice to thrice every week, and the data were recorded. The general behavior of the mice was observed and recorded every day. After the experiment was completed, the tumors were extracted, weighed, and photographed.
The detection parameters and the calculation formulas are as follows: Tumor volume TV (mm^3) = 1/2 × (a×b^2), [formula] where a represents the long diameter of the tumor, and b represents the short diameter of the tumor. Relative tumor volume RTV = TVt /TV0 , [formula] wherein TV0 represents the tumor volume on day 0, and TVt represents the tumor volume at each measurement. Relative tumor proliferation rate T/C (%) = (TRTV/CRTV) × 100%, [formula] where TRTV represents RTV of the treatment group, and CRTV represents RTV of the vehicle control group. […]

T1 sequence (P09874 whole entry): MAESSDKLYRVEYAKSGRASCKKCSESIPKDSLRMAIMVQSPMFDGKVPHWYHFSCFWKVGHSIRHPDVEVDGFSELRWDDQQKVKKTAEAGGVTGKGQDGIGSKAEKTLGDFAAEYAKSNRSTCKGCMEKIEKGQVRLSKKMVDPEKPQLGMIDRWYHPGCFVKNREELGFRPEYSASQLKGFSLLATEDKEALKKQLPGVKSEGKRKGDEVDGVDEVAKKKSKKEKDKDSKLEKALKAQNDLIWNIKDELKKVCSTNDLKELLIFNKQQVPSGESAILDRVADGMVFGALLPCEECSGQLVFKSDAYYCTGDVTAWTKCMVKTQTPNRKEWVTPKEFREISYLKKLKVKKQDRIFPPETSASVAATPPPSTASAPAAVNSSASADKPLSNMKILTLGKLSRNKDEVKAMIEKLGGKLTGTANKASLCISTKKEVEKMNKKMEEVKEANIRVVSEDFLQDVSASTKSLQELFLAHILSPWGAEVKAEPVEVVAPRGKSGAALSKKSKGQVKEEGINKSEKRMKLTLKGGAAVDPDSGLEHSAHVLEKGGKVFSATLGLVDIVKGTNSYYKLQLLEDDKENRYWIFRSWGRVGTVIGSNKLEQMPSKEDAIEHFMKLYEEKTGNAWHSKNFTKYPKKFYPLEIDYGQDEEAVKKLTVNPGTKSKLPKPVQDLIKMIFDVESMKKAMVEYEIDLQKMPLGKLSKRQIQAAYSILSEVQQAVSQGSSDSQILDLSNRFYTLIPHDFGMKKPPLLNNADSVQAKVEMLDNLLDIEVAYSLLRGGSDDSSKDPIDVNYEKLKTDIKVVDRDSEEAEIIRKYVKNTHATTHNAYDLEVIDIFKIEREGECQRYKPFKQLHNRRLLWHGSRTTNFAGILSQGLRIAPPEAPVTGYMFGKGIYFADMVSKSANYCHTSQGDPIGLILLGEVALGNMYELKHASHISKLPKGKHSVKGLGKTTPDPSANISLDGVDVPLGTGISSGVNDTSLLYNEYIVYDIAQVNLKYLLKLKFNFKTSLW
T2 sequence (Q9UGN5 whole entry): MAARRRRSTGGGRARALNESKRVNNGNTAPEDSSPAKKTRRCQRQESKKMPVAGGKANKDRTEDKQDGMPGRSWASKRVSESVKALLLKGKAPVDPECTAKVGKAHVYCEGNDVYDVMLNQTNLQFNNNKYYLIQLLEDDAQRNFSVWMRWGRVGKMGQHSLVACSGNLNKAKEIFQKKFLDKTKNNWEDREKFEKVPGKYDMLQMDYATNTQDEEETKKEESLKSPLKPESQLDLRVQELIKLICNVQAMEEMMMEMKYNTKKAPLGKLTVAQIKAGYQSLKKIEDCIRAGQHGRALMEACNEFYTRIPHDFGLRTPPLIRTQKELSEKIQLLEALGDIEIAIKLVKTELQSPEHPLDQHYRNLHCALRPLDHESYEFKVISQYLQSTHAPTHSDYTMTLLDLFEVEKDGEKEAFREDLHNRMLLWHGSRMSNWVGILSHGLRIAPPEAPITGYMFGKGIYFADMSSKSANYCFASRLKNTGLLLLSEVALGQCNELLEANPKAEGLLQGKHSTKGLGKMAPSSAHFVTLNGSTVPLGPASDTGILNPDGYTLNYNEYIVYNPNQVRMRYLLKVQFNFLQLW

CCc1cc2ncc(CN3CC(N4Cc5cn(C(=O)NC)nc5C4)C3)cc2[nH]c1=O [Compound 10]
IC50 [1]: ≤ 50 nM

CNC(=O)n1cc2c(n1)CN(C1CN(Cc3ccc4cc(C(F)(F)F)c(=O)[nH]c4c3)C1)C2 [Compound 24]
PARP2/PARP 1 selectivity [2]: >200 fold
IC50 ([1]; Homo sapiens, MDA-MB-436): ≤ 50 nM

CNC(=O)n1cc2c(n1)CN(C1CN(Cc3ccc4c5c(c(=O)[nH]c4c3)CCC5)C1)C2 [Compound 15]
IC50 [1]: ≤ 50 nM

CNC(=O)n1cc2c(n1)CN(C1CN(Cc3ccc4c(c3)[nH]c(=O)n3cccc43)C1)C2 [Compound 34]
IC50 ([1]; Homo sapiens, MDA-MB-436): ≤ 50 nM

CCc1cc2ccc(CN3CC(N4Cc5cn(C(=O)N[C@@H]6CCOC6)nc5C4)C3)cc2[nH]c1=O [Compound 17]
IC50 ([1]; Homo sapiens, MDA-MB-436): ≤ 50 nM

CCc1cc2c(F)cc(CN3CC(N4Cc5cn(C(=O)NC)nc5C4)C3)cc2[nH]c1=O [Compound 16]
IC50 [1]: ≤ 50 nM

CNC(=O)c1nc2c(s1)CN(C1CN(Cc3ccc4cc(Cl)c(=O)[nH]c4c3)C1)C2 [Compound 27]
IC50 ([1]; Homo sapiens, MDA-MB-436): ≤ 50 nM

CCc1cc2c(Cl)cc(CN3CC(N4Cc5cn(C(=O)NC)nc5C4)C3)cc2[nH]c1=O [Compound 25]
IC50 ([1]; Homo sapiens, MDA-MB-436): ≤ 50 nM

CCc1cc2ccc(CN3CC(N4Cc5cn(C(=O)NC)nc5C4)C3)cc2[nH]c1=O [Compound 1]
IC50 [1]: ≤ 50 nM

CNC(=O)n1cc2c(n1)CN([C@H]1CN(Cc3ccc4cc(C5CC5)c(=O)[nH]c4c3)[C@H]1C)C2 [Compound 42]
IC50 [3]: < 1 nM
IC50 ([1]; Homo sapiens, MDA-MB-436): ≤ 50 nM

CCc1cc2ccc(CN3CC(N4Cc5nc(C(=O)NC)sc5C4)C3)cc2[nH]c1=O [Compound 19]
IC50 ([1]; Homo sapiens, MDA-MB-436): ≤ 50 nM

CCc1cc2c(F)cc(CN3CC(N4Cc5nc(C(=O)NC)sc5C4)C3)cc2[nH]c1=O [Compound 21]
IC50 ([1]; Homo sapiens, MDA-MB-436): ≤ 50 nM

CCc1cc2ccc(CN3CC(N4Cc5cn(C(=O)NC6CC6)nc5C4)C3)cc2[nH]c1=O [Compound 4]
IC50 [1]: ≤ 50 nM

CCc1cc2ccc(CN3C[C@H](N4Cc5cn(C(=O)NC)nc5C4)[C@@H]3C)cc2[nH]c1=O [Compound 41]
IC50 [3]: < 10 nM
IC50 ([1]; Homo sapiens, MDA-MB-436): ≤ 50 nM

CNC(=O)n1cc2c(n1)CN(C1CN(Cc3ccc4cc(C)c(=O)[nH]c4c3)C1)C2 [Compound 22]
IC50 ([1]; Homo sapiens, MDA-MB-436): ≤ 50 nM

CNC(=O)c1nc2c(s1)CN(C1CN(Cc3ccc4cc(C5CC5)c(=O)[nH]c4c3)C1)C2 [Compound 31]
IC50 ([1]; Homo sapiens, MDA-MB-436): ≤ 50 nM

CNC(=O)n1cc2c(n1)CN(C1CN(Cc3ccc4cc(C5CC5)c(=O)[nH]c4c3)[C@@H]1C)C2 (single isomer, unassigned) [Compound 40]
IC50 ([1]; Homo sapiens, MDA-MB-436): ≤ 50 nM

CCc1nc2ccc(CN3C[C@H](N4Cc5cn(C(=O)NC)nc5C4)[C@@H]3C)c(F)c2[nH]c1=O [Compound 51]
IC50 ([1]; Homo sapiens, MDA-MB-436): ≤ 50 nM

CNC(=O)n1cc2c(n1)CN(C1CN(Cc3ccc4cc(Cl)c(=O)[nH]c4c3)C1)C2 [Compound 26]
IC50 ([1]; Homo sapiens, MDA-MB-436): ≤ 50 nM

CCc1cc2ncc(CN3CC(N4Cc5cn(C(=O)NC6CC6)nc5C4)C3)cc2[nH]c1=O [Compound 5]
IC50 [1]: ≤ 50 nM

CCc1cc2ncc(CN3C[C@H](N4Cc5cn(C(=O)NC)nc5C4)[C@@H]3C)cc2[nH]c1=O [Compound 47]
IC50 [3]: < 1 nM
IC50 ([1]; Homo sapiens, MDA-MB-436): ≤ 50 nM

CCNC(=O)n1cc2c(n1)CN(C1CN(Cc3ccc4cc(CC)c(=O)[nH]c4c3)C1)C2 [Compound 13]
IC50 [1]: ≤ 50 nM

O=C(NC1CC1)n1cc2c(n1)CN(C1CN(Cc3ccc4cc(C5CC5)c(=O)[nH]c4c3)C1)C2 [Compound 11]
IC50 [1]: ≤ 50 nM

CNC(=O)n1cc2c(n1)CN(C1CN(Cc3ccc4cc(C5CC5)c(=O)[nH]c4c3)C1)C2 [Compound 2]
IC50 ([1]; Homo sapiens, MDA-MB-436): ≤ 50 nM

Cc1cc2ccc(CN3CC(N4Cc5cn(C(=O)NC6CC6)nc5C4)C3)cc2[nH]c1=O [Compound 23]
IC50 ([1]; Homo sapiens, MDA-MB-436): ≤ 50 nM

CNC(=O)c1nc2c(s1)CN(C1CN(Cc3ccc4cc(C(F)(F)F)c(=O)[nH]c4c3)C1)C2 [Compound 28]
IC50 ([1]; Homo sapiens, MDA-MB-436): ≤ 50 nM

CNC(=O)n1cc2c(n1)CN(C1CN(Cc3ccc4cc(C(F)(F)F)c(=O)[nH]c4c3)[C@@H]1C)C2 (single isomer, unassigned) [Compound 35]
IC50 ([1]; Homo sapiens, MDA-MB-436): ≤ 50 nM

CCc1cc2ccc(CN3CC(N4Cc5cn(C(=O)NC)nc5C4)C3)c(F)c2[nH]c1=O [Compound 29]
IC50 ([1]; Homo sapiens, MDA-MB-436): ≤ 50 nM

CNC(=O)n1cc2c(n1)CN([C@H]1CN(Cc3ccc4cc(C(F)(F)F)c(=O)[nH]c4c3F)[C@H]1C)C2 [Compound 55]
Kp at 8 h ([4]; brain, 2 mg/kg, read-out: Brain-to-blood ratio): 0.082
AUC at 8 h ([4]; SD rats, ig 2 mg/kg, brain homogenate): 453 ng·h/mL
AUC(0-t) at 8 h ([4]; SD rats, ig 2 mg/kg, plasma): 5530 ng·h/mL
AUC(0-t) ([5]; iv 0.1 mg/kg): 6650 ng·h/mL
half-life ([5]; iv 0.1 mg/kg): 13.6 h
AUC(0-t) ([5]; po, ig 0.1 mg/kg): 5490 ng·h/mL
Cmax ([5]; po, ig 0.1 mg/kg): 331 ng/mL
IC50 [3]: < 1 nM
AUC(0-t) ([6]; iv 0.1 mg/kg): 326 ng·h/mL
half-life ([6]; iv 0.1 mg/kg): 4.74 h
AUC(0-t) ([6]; po, ig 0.5 mg/kg): 1710 ng·h/mL
Cmax ([6]; po, ig 0.5 mg/kg): 208 ng/mL
half-life ([6]; po, ig 0.5 mg/kg): 4.76 h
IC50 ([2]; FP method, PARP1 5 nM, Tracer 2.5 nM): 3.1 nM
PARP2/PARP 1 selectivity [2]: >200 fold
IC50 [7]: > 500 nM
IC50 ([1]; Homo sapiens, MDA-MB-436): ≤ 50 nM
tumor inhibition rate [8]: up to 97%

CCc1nc2ccc(CN3C[C@H](N4Cc5cn(C(=O)NC)nc5C4)[C@@H]3C)cc2[nH]c1=O [Compound 45]
PARP2/PARP 1 selectivity [2]: >200 fold
IC50 ([1]; Homo sapiens, MDA-MB-436): ≤ 50 nM

CCc1cc2c(F)cc(CN3CC(N4Cc5cn(C(=O)NC6CC6)nc5C4)C3)cc2[nH]c1=O [Compound 20]
IC50 ([1]; Homo sapiens, MDA-MB-436): ≤ 50 nM

CNC(=O)n1cc2c(n1)CN(C1CN(Cc3ccc4c(C)c(C(F)(F)F)c(=O)[nH]c4c3)C1)C2 [Compound 50]
IC50 [3]: < 1 nM
IC50 ([1]; Homo sapiens, MDA-MB-436): ≤ 50 nM

CCc1cc2ncc(CN3CC(N4Cc5nc(C(=O)NC)sc5C4)C3)cc2[nH]c1=O [Compound 7]
IC50 [1]: ≤ 50 nM

CCc1cc2ccc(CN3CC(N4Cc5nc(C(=O)NC)sc5C4)C3)c(F)c2[nH]c1=O [Compound 30]
IC50 ([1]; Homo sapiens, MDA-MB-436): ≤ 50 nM

CNC(=O)c1cc2c(s1)CN(C1CN(Cc3ccc4cc(C(F)(F)F)c(=O)[nH]c4c3)C1)C2 [Compound 33]
IC50 ([1]; Homo sapiens, MDA-MB-436): ≤ 50 nM

CNC(=O)n1cc2c(n1)CN([C@H]1CN(Cc3ccc4cc(C(F)(F)F)c(=O)[nH]c4c3)[C@H]1C)C2 [Compound 36]
IC50 ([1]; Homo sapiens, MDA-MB-436): ≤ 50 nM

CNC(=O)n1cc2c(n1)CN([C@H]1CN(Cc3ccc4c(C)c(C(F)(F)F)c(=O)[nH]c4c3)[C@H]1C)C2 [Compound 54]
IC50 [3]: < 1 nM
IC50 ([1]; Homo sapiens, MDA-MB-436): ≤ 50 nM

CNC(=O)n1cc2c(n1)CN([C@@H]1CN(Cc3ccc4cc(C5CC5)c(=O)[nH]c4c3)[C@H]1C)C2 [Compound 43]
IC50 [1]: ≤ 50 nM

CCc1cc2cc(F)c(CN3CC(N4Cc5cn(C(=O)NC)nc5C4)C3)cc2[nH]c1=O [Compound 18]
IC50 ([1]; Homo sapiens, MDA-MB-436): ≤ 50 nM

CCc1cc2ccc(CN3CC(N4Cc5cn(C(=O)NC(C)C)nc5C4)C3)cc2[nH]c1=O [Compound 9]
IC50 [1]: ≤ 50 nM
